The values that follow come from PMC9861830, “Hydroxylated Coumarin-Based Thiosemicarbazones as Dual Antityrosinase and Antioxidant Agents” (International Journal of Molecular Sciences, 2023).

Series [1] in a line: DPPH radical scavenging assay. To be noted: for EC50: ethanol, absorbance at 517 nm, 30 min, mean ± SEM, three experiments. Here is the method: The antioxidant activity of T1 and its hydroxylated derivatives T2–6 was evaluated via DPPH assay, which is based on the ability of the stable DPP· radical species to be converted in its diamagnetic form (DPPH) by accepting an H· from the tested compound. […] From the evaluation of the relative decrease in absorbance at different concentrations of each tested compound, the antioxidant activities were evaluated by reporting their EC50 values, as shown in Table 1.
(§1) Radical scavenging activities were measured with DPPH and ABTS radical scavenging assays. […] In brief, for the DPPH antioxidant assay procedure, each test compound was dissolved in DMSO at 1.0 mM concentration and then diluted with absolute ethanol in the 500–2.0 µM concentration range. A solution of the DPPH radical (0.1 mM, absolute ethanol) was freshly prepared, stored in the dark, and used within a few hours. Each test solution (1500 µL) was vigorously mixed to an equal volume of DPPH inside a cuvette, and the molecular absorbance at 517 nm was recorded for 30 min. Each test was evaluated in three independent experiments. Ascorbic acid was used as the reference compound. For the ABTS method, based on the capacity of an antioxidant to scavenge the free ABTS^+ generated in the aqueous phase by reacting with a strong oxidizing, the free radical ABTS was produced by reacting 7 mM ABTS with 2.45 mM potassium persulfate in aqueous solution and kept in darkness at room temperature for 24 h before use. Samples of each compound (10 µL) were added to 990 µL of ABTS, and the reduction of the blue-green radical ABTS by hydrogen-donating antioxidants was evaluated by measuring the absorbance at 734 nm after 1 min incubation. The 6-hydroxy-2,5,7,8-tetramethylchromane-2-carboxylic acid (Trolox) was used as the antioxidant standard.
(In general: Loss of DPPH colour is used to gauge radical scavenging.)

Series [2] concerns the target mushroom tyrosinase. The series can be described thus: Tyrosinase inhibition assay (L-DOPA, dopachrome at 492 nm; Lineweaver–Burk plots). It is filed as biochemical. To be noted: for IC50: L-DOPA 0.5 mM, pH 6.8, 37 °C, mean ± SD, three experiments; for Ki: secondary plot of slope, read-out: Ki (inhibitor binding with free enzyme); for inhibition mode: Lineweaver–Burk plots, L-DOPA. The protocol: The inhibition of mushroom tyrosinase was evaluated as previously described with slight modifications. A mixture containing 50 mM phosphoric acid buffer solution (pH 6.8), a solution of mushroom tyrosinase (72 U/mL final concentration; Sigma Chemical Co., Milan, Italy), and DMSO with or without the sample were incubated at 37 °C for 10 min. Then, L-DOPA solution (0.5 mM final) was added, and the reaction was monitored following the molecular absorbance at 492 nm that resulted from the formation of the dopachrome product. Measurements were performed using a FLUOstar OPTIMA (BMG Labtech, Offenburg, Germany). […] The inhibition mode was analysed using the Lineweaver–Burk plots.

Series [3] is described as follows: Potentiometric and spectrophotometric titrations (protonation constants, speciation). The series is classed as physicochemical. To be noted: for Logβ / pK: 25 °C, NaCl 0.1 M; for species present at pH of the enzymatic inhibitory studies: pH 6.8. Here is the method:
Potentiometric titrations were performed in a thermostated vessel at 25 °C in 0.1 M ionic strength (NaCl) using a Mettler-Toledo Seven Compact pH/Ion-meter and equipped with a Mettler-Toledo InLab Micro Pro combined glass electrode with an integrated temperature probe. The glass electrode was calibrated daily and checked using the GLEE software package. UV–visible (UV–Vis) measurements were carried out with an Agilent Cary 60 spectrophotometer using a 0.1 cm quartz cuvette. Protonation constants of the studied molecules were determined via spectrophotometric and potentiometric titrations. Solutions of ligands were prepared daily by dissolving a suitable amount of the compound in DMSO (concentration ≈ 12 mM) prior to the required dilution in 0.1 M NaCl (final DMSO content 1% V/V, concentration ≈ 1.2∙10^−4 M). Four HCl equivalents for T1, five for T2–4, and six for T5–6 were added before titrating with an NaOH standard solution. Potentiometric and spectrophotometric data were simultaneously analysed using the Hyperquad 2006 software package. Speciation diagrams were obtained using Hyss 2009 program with the spectrophotometric data. The number of linearly independent absorbing species was found by applying the eigenvalue analysis to the absorbance data matrix.

A short description of series [4]: ABTS radical scavenging assay. As to conditions: absorbance at 734 nm after 1 min; mean ± SEM, three experiments. Here is the method: as §1
The test system of series [5] is B16F10 cells. Description: Cell viability assay (MTT). The series is classed as cell-based, Murine. As to conditions: 48 h. Here is the method:
(§2) The cellular cytotoxicity of compound T6 was investigated using a 3-(4,5-dimethylthiazol-2-yl)-2,5-diphenil-tetrazolium bromide (MTT) assay. Murine melanoma B16F10 cells were seeded in 96-well plates at a density of 5 × 10^3 cells/well and cultured in Dulbecco’s Modified Eagle Medium (DMEM) with 10% fetal bovine serum at 37 °C in a humidified atmosphere with 5% CO2. The B16F10 cell line was exposed for 48 h to compound T6 at concentrations ranging from 4 to 100 μM. After incubation, culture supernatants were removed and exchanged with a medium containing 0.5 mg/mL MTT. Then, after 3 h of incubation at 37 °C, the cells were lysed with 100 μL of DMSO. The absorbance was determined at 560 nm using a microplate reader (Multiskan FC-Thermo Scientific Inc. Waltham, MA, USA).

Series [6] can be described thus: Cell viability assay (MTT). The series is classed as cell-based, Murine. To be noted: mouse, B16F10 melanoma cells, 100 μM, percentage of control. The protocol:
as §2

The mark [7] stands for this setting: L + H^+ ⇌ HL (first protonation).

For orientation: EC50 means the concentration needed to bring the measured effect to its halfway point. As for `O=C1O[C@H]([C@@H](O)CO)C(O)=C1O` [Ascorbic Acid, Ascorbic acid, reference compound], in series [1], a half-maximal effect (EC50) was put at 18.6 ± 0.6 µM.
What is called IC50 is the concentration needed to halve the response being measured. For orientation: Ki means the dissociation constant of the complex between target and ligand, obtained from inhibition or displacement. As to `C/C(=N\NC(N)=S)c1cc2ccccc2oc1=O` [T1, (1E)-2-(1-(2-oxo-2H-chromen-3-yl)ethylidene)hydrazine-1-carbothioamide], inhibition in series [2] was half-maximal at 4 ± 2 µM (IC50). For the same compound, the Ki in series [2] (L-DOPA substrate) is 0.85 µM. In series [2], the inhibition mode entry is “competitive inhibition”. In addition, the results for the Logβ in series [3] (L + 2H^+ ⇌ H2L), in series [3] (L + 3H^+ ⇌ H3L) and in series [3] (setting [7]) were 13.47 (9), 17.45 (8) and 8.46 (9), respectively. In addition, the pK in series [3] (setting [7]) was found to be 8.5; in series [3] (step to H2L) it was 5.0; in series [3] (step to H3L), 4.0. The “species present in blood plasma” value in series [3] (pH 7.4) was “neutral form (as HL)”. Also, the results for the EC50 in series [1] and in series [4] were greater than 250 µM and 72 ± 6 µM, respectively.
A word on the melting point: it is the temperature of the solid-liquid transition. As for `C/C(=N\NC(N)=S)c1cc2cc(O)ccc2oc1=O` [T2, (1E)-2-(1-(6-hydroxy-2-oxo-2H-chromen-3-yl)ethylidene)hydrazine-1-carbothioamide], the melting point is 222 to 224 °C (dec.). Besides, inhibition in series [2] was half-maximal at 14 ± 7 µM (IC50). In series [3] (L + 2H^+ ⇌ H2L), the Logβ was 17.24 (6). Moreover, in series [3] (L + 3H^+ ⇌ H3L), the Logβ is recorded as 22.4 (1). Moreover, the Logβ in series [3] (L + 4H^+ ⇌ H4L) is reported as 26.7 (1). Besides, in series [3] (setting [7]), the Logβ is recorded as 10.20 (8) and the pK was found to be 10.2. Besides, in series [3] (step to H3L), the pK was 5.4. The pK in series [3] (step to H4L) came out at 4.3. In series [1], this compound showed an EC50 greater than 250 µM. For the same compound, the midpoint of the response in series [4], the EC50, lay at 25.7 ± 0.4 µM.
In series [2], `C/C(=N\NC(N)=S)c1cc2ccc(O)cc2oc1=O` [T3, (1E)-2-(1-(7-hydroxy-2-oxo-2H-chromen-3-yl)ethylidene)hydrazine-1-carbothioamide] had an IC50 of 5 ± 2 µM. Moreover, the Logβ in series [3] (L + 2H^+ ⇌ H2L) is given as 17.6 (1); in series [3] (L + 3H^+ ⇌ H3L) it was 23.26 (7); in series [3] (L + 4H^+ ⇌ H4L), 26.7 (1); in series [3] (setting [7]), 10.5 (1). Further, the pK turned out to be 10.5 in series [3] (setting [7]), 7.1 in series [3] (step to H2L), 5.7 in series [3] (step to H3L) and 3.4 in series [3] (step to H4L). Further, the EC50 was greater than 250 µM in series [1] and 36 ± 1 µM in series [4].
`C/C(=N\NC(N)=S)c1cc2cccc(O)c2oc1=O` [T4, (1E)-2-(1-(8-hydroxy-2-oxo-2H-chromen-3-yl)ethylidene)hydrazine-1-carbothioamide]: the melting point was 208 to 210 °C (dec.). Also, the IC50 in series [2] was 5.7 ± 0.8 µM. The Logβ in series [3] (L + 2H^+ ⇌ H2L) is listed as 17.26 (1). Besides, the Logβ in series [3] (L + 3H^+ ⇌ H3L) was 22.94 (5). Moreover, the Logβ in series [3] (L + 4H^+ ⇌ H4L) is listed as 26.5 (2). In addition, in series [3] (setting [7]), the Logβ is reported as 10.4 (1) and the pK turned out to be 10.4. The compound further yielded a pK in series [3] (step to H2L) of 6.9. This compound came in with a pK in series [3] (step to H3L) of 5.7. In series [3] (step to H4L), this compound gave a pK of 3.6. Besides, in series [1], it took 28 ± 2 µM to reach a half-maximal effect (EC50). Besides, in series [1] (in comparison with ascorbic acid), the “radical scavenging / antioxidant activity in DPPH assay (in words)” value is “modest antioxidant activity”. Further, in series [4], it took 21.8 ± 0.8 µM to reach a half-maximal effect (EC50).
Consider `C/C(=N\NC(N)=S)c1cc2cc(O)c(O)cc2oc1=O` [T5, (1E)-2-(1-(6,7-dihydroxy-2-oxo-2H-chromen-3-yl)ethylidene)hydrazine-1-carbothioamide], for which the melting point is 228 to 230 °C (dec.). Besides, the IC50 in series [2] was determined as 6 ± 2 µM. Further, the Logβ in series [3] (L + 2H^+ ⇌ H2L) was 18.46 (9). In addition, in series [3] (L + 3H^+ ⇌ H3L), the Logβ is given as 24.76 (7). Moreover, in series [3] (L + 4H^+ ⇌ H4L), the Logβ was 29.50 (6). Moreover, in series [3] (setting [7]), the Logβ was 10.7 (1) and the pK is on record as 10.7. Further, the pK in series [3] (step to H2L) turned out to be 7.8. This compound also showed a pK in series [3] (step to H3L) of 6.3. The compound further displayed a pK in series [3] (step to H4L) of 4.7. For the same compound, the “species present at pH of the enzymatic inhibitory studies” value in series [3] is listed as “monoanionic form, H2L^-”. For the same compound, it took 7.1 ± 0.3 µM to reach a half-maximal effect in series [1] (EC50). The compound further yielded an EC50 in series [4] of 9 ± 1 µM.
In general, viability refers to the share of living cells, or the viability signal relative to a control. A higher viability goes with less harm to the cells. For `C/C(=N\NC(N)=S)c1cc2ccc(O)c(O)c2oc1=O` [T6, (1E)-2-(1-(7,8-dihydroxy-2-oxo-2H-chromen-3-yl)ethylidene)hydrazine-1-carbothioamide], the melting point was 228 to 230 °C (dec.). The “cytotoxic effect (in words)” value in series [5] (4 μM) is “no cytotoxic effect”. In series [5] (4–100 μM), the “cytotoxicity (in words)” value is listed as “not cytotoxic”. The viability at 48 h, 100 µM in series [6] is greater than 90%. For the same compound, in series [2], the IC50 came to 4.1 ± 0.7 µM and the inhibition mode entry is on record as “mixed-type inhibitor”. Moreover, the “Kis (inhibitor binding with enzyme–substrate complex)” value in series [2] (L-DOPA substrate, secondary plot of 1/Vmax) was determined as 10.65 µM. For the same compound, in series [2] (L-DOPA substrate), the inhibition constant (Ki) was found to be 5.88 µM. Further, the Logβ in series [3] (L + 2H^+ ⇌ H2L) is given as 19.3 (1). Also, the Logβ in series [3] (L + 3H^+ ⇌ H3L) is reported as 25.1 (1). Also, the Logβ in series [3] (L + 4H^+ ⇌ H4L) is 29.5 (1). Besides, in series [3] (setting [7]), the Logβ is 10.5 (2) and the pK amounted to 10.5. This compound also showed a pK in series [3] (step to H2L) of 8.8. The pK in series [3] (step to H3L) was 5.8. In series [3] (step to H4L), the pK worked out at 4.4. For the same compound, in series [3], the “species present at pH of the enzymatic inhibitory studies” value is given as “monoanionic form, H2L^-”. The compound also returned an EC50 in series [1] of 17.9 ± 0.4 µM. For the same compound, the EC50 in series [4] is 8.8 ± 0.4 µM.
Consider `Cc1c(C)c2c(c(C)c1O)CCC(C)(C(=O)O)O2` (stereo not drawn) [Trolox, 6-hydroxy-2,5,7,8-tetramethylchromane-2-carboxylic acid, reference compound], for which, in series [4], the EC50 amounted to 13 ± 1 µM.
